pIC50: −log10 of the molar value.
target: T1, Capsid scaffolding protein (Human cytomegalovirus (strain AD169) (HHV-5) (Human herpesvirus 5), UniProt P16753); test: Inhibitory activity against Human Cytomegalovirus (hCMV) protease; parameters: species or system Human betaherpesvirus 5
T1 sequence (P16753 whole entry): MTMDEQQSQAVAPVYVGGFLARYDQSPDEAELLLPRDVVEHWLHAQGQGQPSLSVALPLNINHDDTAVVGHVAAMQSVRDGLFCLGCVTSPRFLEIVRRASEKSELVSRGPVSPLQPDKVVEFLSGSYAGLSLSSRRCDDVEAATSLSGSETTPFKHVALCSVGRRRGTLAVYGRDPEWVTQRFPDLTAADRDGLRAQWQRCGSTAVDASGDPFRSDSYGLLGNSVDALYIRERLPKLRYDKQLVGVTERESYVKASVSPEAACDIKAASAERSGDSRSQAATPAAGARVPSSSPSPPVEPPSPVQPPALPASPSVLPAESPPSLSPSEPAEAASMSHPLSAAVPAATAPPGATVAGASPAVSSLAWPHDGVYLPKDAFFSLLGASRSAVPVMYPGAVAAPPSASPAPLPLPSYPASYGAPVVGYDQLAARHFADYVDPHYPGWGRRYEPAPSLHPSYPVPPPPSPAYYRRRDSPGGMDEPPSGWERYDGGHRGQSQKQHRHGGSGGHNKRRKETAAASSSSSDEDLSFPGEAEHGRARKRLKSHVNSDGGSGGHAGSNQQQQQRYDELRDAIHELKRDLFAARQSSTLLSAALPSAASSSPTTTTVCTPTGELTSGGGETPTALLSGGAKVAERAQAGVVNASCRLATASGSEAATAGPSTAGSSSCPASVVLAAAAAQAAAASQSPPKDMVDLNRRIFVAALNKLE

Row | Structure (SMILES) | pIC50
1 | Cc1csc2nc(Cc3ccc(C(=O)c4cccc(NO)c4)cc3)[nH]c(=O)c12 | 5.70
2 | CC(=O)N(O)c1cccc(C(=O)c2ccc(Cc3nc4scc(C)c4c(=O)o3)cc2)c1 | 5.96
3 | CC(=O)ON(C(C)=O)c1cccc(C(=O)c2ccc(Cc3nc4scc(C)c4c(=O)o3)cc2)c1 | 5.85
4 | Cc1csc2nc(Cc3cccc(NC(=O)c4ccc(NO)cc4)c3)oc(=O)c12 | 7.21
5 | Cc1csc2nc(Cc3ccc(C(=O)c4cccc(CO)c4)cc3)oc(=O)c12 | 5.96
6 | Cc1csc2nc(Cc3ccc(C(=O)c4cccc(/N=[N+](\[O-])c5cccc(C(=O)c6ccc(Cc7nc8scc(C)c8c(=O)o7)cc6)c5)c4)cc3)oc(=O)c12 | < 4.48
7 | Cc1csc2nc(Cc3ccc(C(=O)c4cccc(NO)c4)cc3)oc(=O)c12 | 7.72
8 | Cc1csc2nc(Cc3cccc(NC(=O)c4ccc(NN)cc4)c3)oc(=O)c12 | 5.62
9 | ONc1ccccc1 | 5.05
10 | NO [HYDROXYLAMMONIUM CHLORIDE] | < 4.48
11 | Cc1csc2nc(Cc3ccc(C(=O)c4cccc(N=O)c4)cc3)oc(=O)c12 | 7.26
12 | Cc1csc2nc(Cc3ccc(C(=O)c4cccc([N+](=O)[O-])c4)cc3)oc(=O)c12 | 5.46
13 | Cc1ccc(C(=O)c2cccc(NO)c2)cc1 | 5.43
14 | Cc1csc2nc(Cc3ccc(C(=O)c4ccc(NO)cc4)cc3)oc(=O)c12 | 7.85
15 | Cc1csc2nc(Cc3cccc(NC(=O)c4cccc(NN)c4)c3)oc(=O)c12 | 5.42
16 | Cc1csc2nc(Cc3cccc(NC(=O)c4cccc(NO)c4)c3)oc(=O)c12 | 7.35
17 | Cc1csc2nc(Cc3ccc(C(=O)c4ccccc4)cc3)oc(=O)c12 | 6.10
18 | CONc1cccc(C(=O)Nc2cccc(Cc3nc4scc(C)c4c(=O)o3)c2)c1 | 5.66
19 | Cc1csc2nc(Cc3ccc(C(=O)c4ccc(CO)cc4)cc3)oc(=O)c12 | 6.03
20 | CC(=O)c1cccc(NO)c1 | 4.96
21 | Cc1csc2nc(Cc3ccc(C(=O)c4cccc(N)c4)cc3)oc(=O)c12 | 6.00
22 | Cc1csc2nc(Cc3ccc(C(=O)c4ccccc4)cc3)[nH]c(=O)c12 | < 4.48
23 | Cc1csc2nc(Cc3cccc(NC(=O)c4ccccc4)c3)oc(=O)c12 | 5.82

Source: ChEMBL document CHEMBL1131870, “The inhibition of human cytomegalovirus (hCMV) protease by hydroxylamine derivatives” (Bioorg Med Chem Lett, 1999)
